Test results as given in article PMC3185947 (British Journal of Cancer, 2011).
Marks after values point to notes of the source that are not given here.

System: patients with previously treated advanced NSCLC
Experiment: Erlotinib-related toxicities (worst grade per patient), NCI CTC Version 2.0
Format: in vivo, human
[1] = erlotinib 175–200 mg (N=13), non-cutaneous dose limiting toxicity reported
[2] = erlotinib 225–275 mg (N=18), non-cutaneous dose limiting toxicity reported

## C#Cc1cccc(Nc2ncnc3cc(OCCOC)c(OCCOC)cc23)c1 [erlotinib]
Erlotinib 175–200 mg (N=13)
  Headache, grade 3–4: 0 (0) n (%)
  Headache, grade Any: 0 (0) n (%)
  Nausea, grade 3–4: 0 (0) n (%)
  Nausea, grade Any: 5 (38) n (%)
  Paronychia, grade 3–4: 0 (0) n (%)
  Paronychia, grade Any: 0 (0) n (%)
  Skin fissures, grade 3–4: 0 (0) n (%)
  Skin fissures, grade Any: 0 (0) n (%)
  Stomatitis, grade 3–4: 0 (0) n (%)
  Stomatitis, grade Any: 5 (38) n (%)
  Vomiting, grade 3–4: 0 (0) n (%)
  Vomiting, grade Any: 5 (38) n (%)
[1]
  Creatinine, grade 3–4: 1 (8) ^a n (%)
  Fatigue, grade 3–4: 1 (8) ^a n (%)
Erlotinib 225–275 mg (N=18)
  Alopecia, grade 3–4: 0 (0) n (%)
  Alopecia, grade Any: 4 (22) n (%)
  Anorexia, grade Any: 6 (33) n (%)
  Creatinine, grade 3–4: 0 (0) n (%)
  Creatinine, grade Any: 0 (0) n (%)
  Diarrhea, grade 3–4: 1 (6) n (%)
  Diarrhea, grade Any: 13 (72) n (%)
  Epistaxis, grade 3–4: 0 (0) n (%)
  Epistaxis, grade Any: 3 (17) n (%)
  Fatigue, grade Any: 6 (33) n (%)
  Headache, grade Any: 1 (6) n (%)
  Nausea, grade 3–4: 0 (0) n (%)
  Nausea, grade Any: 9 (50) n (%)
  Paronychia, grade 3–4: 0 (0) n (%)
  Paronychia, grade Any: 3 (17) n (%)
  Skin fissures, grade 3–4: 1 (6) n (%)
  Skin fissures, grade Any: 2 (11) n (%)
  Stomatitis, grade 3–4: 0 (0) n (%)
  Stomatitis, grade Any: 6 (33) n (%)
  Vomiting, grade 3–4: 0 (0) n (%)
  Vomiting, grade Any: 5 (28) n (%)
[2]
  Anorexia, grade 3–4: 1 (6) ^a n (%)
  Fatigue, grade 3–4: 2 (11) ^a n (%)
  Headache, grade 3–4: 1 (6) ^a n (%)
Erlotinib ⩾300 mg (N=7)
  Alopecia, grade 3–4: 0 (0) n (%)
  Alopecia, grade Any: 2 (29) n (%)
  Anorexia, grade 3–4: 0 (0) n (%)
  Anorexia, grade Any: 3 (43) n (%)
  Creatinine, grade 3–4: 0 (0) n (%)
  Creatinine, grade Any: 0 (0) n (%)
  Diarrhea, grade 3–4: 0 (0) n (%)
  Diarrhea, grade Any: 7 (100) n (%)
  Epistaxis, grade 3–4: 0 (0) n (%)
  Epistaxis, grade Any: 2 (29) n (%)
  Fatigue, grade 3–4: 0 (0) n (%)
  Fatigue, grade Any: 4 (57) n (%)
  Headache, grade 3–4: 0 (0) n (%)
  Headache, grade Any: 0 (0) n (%)
  Nausea, grade 3–4: 0 (0) n (%)
  Nausea, grade Any: 5 (71) n (%)
  Paronychia, grade Any: 2 (29) n (%)
  Skin fissures, grade 3–4: 0 (0) n (%)
  Skin fissures, grade Any: 2 (29) n (%)
  Stomatitis, grade 3–4: 0 (0) n (%)
  Stomatitis, grade Any: 1 (14) n (%)
  Vomiting, grade 3–4: 0 (0) n (%)
  Vomiting, grade Any: 3 (43) n (%)
Erlotinib ⩾300 mg (N=7), non-cutaneous dose limiting toxicity reported
  Paronychia, grade 3–4: 1 (14) ^a n (%)
human, in vivo
  Non-cutaneous DLT: grade 3 anorexia: one
  Non-cutaneous DLT: grade 3 creatinine elevation: one
  Non-cutaneous DLT: grade 3 fatigue: three
  Non-cutaneous DLT: grade 3 headache: one
  Non-cutaneous DLT: grade 3 paronychia: one
  Patients who discontinued treatment due to protracted grade 3 anorexia and grade 2 nausea: One
Of 42 patients
  Patients who experienced non-cutaneous DLT: Seven
